Legend:
human TGR5 (h-TGR5) = molecular target: T1, human TGR5 (h-TGR5) (Homo sapiens, UniProt Q8TDU6); assay: TGR5/CRE-Luciferiase Assay (HEK 293 hTGR5/CRE-Luc cells); type: cell-based; settings: h-TGR5 CRE-Luc EC50, Table 1; read-out: CRE-Luc (EC50)
T1 construct: expressed in transfected cells
T1 sequence (Q8TDU6 1-330): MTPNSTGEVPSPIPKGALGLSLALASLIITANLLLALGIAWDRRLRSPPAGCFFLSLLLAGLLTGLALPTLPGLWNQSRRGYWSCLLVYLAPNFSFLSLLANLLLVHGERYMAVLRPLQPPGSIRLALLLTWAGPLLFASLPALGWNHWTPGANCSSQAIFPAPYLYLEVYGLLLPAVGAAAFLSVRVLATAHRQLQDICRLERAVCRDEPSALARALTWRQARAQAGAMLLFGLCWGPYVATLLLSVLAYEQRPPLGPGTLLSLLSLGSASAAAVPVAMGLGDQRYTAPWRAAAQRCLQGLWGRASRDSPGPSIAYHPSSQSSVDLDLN
How it was run: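 HEK293 cells stably carrying hTGR5 and a CRE-luciferase reporter were exposed to serially diluted compounds (diluted in DMEM with 5% DMSO) for 6 h. Cells were then lysed in luciferase buffer, luminescence was read, and EC50 values were derived from dose-response curves.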

h-TGR5 = molecular target: T2, h-TGR5 (Homo sapiens, UniProt Q8TDU6); assay: TGR5 cAMP Assay using Cisbio cAMP Dynamic2 htrf kit (hTGR5CRE-luc HEK 293 cells); type: cell-based; settings: h-TGR5 cAMP EC50, Table 1; read-out: cAMP (EC50)
T2 construct: expressed in transfected cells
T2 sequence (Q8TDU6 1-330): T1 sequence (Q8TDU6 1-330)
How it was run: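 […], 4000 hTGR5CRE-luc HEK 293 cells per well, with 0.5 mM IBMX and d2-cAMP, were incubated 30 min at room temperature with compounds in 8-point half-log series, in quadruplicate.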

| EC50 (human TGR5 (h-TGR5)) [nM] | EC50 (h-TGR5) [nM] | Compound |
| --- | --- | --- |
| < 100 | 100 to 1000 | CC(C)(c1ccc(S(N)(=O)=O)c(Cl)c1)c1cnc(SCc2ccc(F)cc2Cl)n1-c1ccc(F)cc1 [2-chloro-4-{1-[2-{[(2-chloro-4-fluorophenyl)methyl]thio}-1-(4-fluorophenyl)-1H-imidazol-5-yl]-1-methylethyl}benzenesulfonamide] |
| < 100 | < 100 | COc1cc(C(C)(C)c2cnc(SCc3cc(S(N)(=O)=O)c(Cl)cc3F)n2-c2ccc(F)cc2)ccc1Cl [2-chloro-5-({[5-{1-[4-chloro-3-(methyloxy)phenyl]-1-methylethyl}-1-(4-fluorophenyl)-1H-imidazol-2-yl]thio}methyl)-4-fluorobenzenesulfonamide] |
| < 100 | < 100 | CC(C)(c1ccc(Cl)c(Cl)c1)c1cnc(SCc2ccc(Cl)c(S(N)(=O)=O)c2)n1-c1ccc(F)cc1 [2-chloro-5-[({5-[1-(3,4-dichlorophenyl)-1-methylethyl]-1-(4-fluorophenyl)-1H-imidazol-2-yl}thio)methyl]benzenesulfonamide] |
| < 100 | 100 to 1000 | COc1cc(C(C)(C)c2cnc(SCc3ccc(F)cc3Cl)n2-c2ccc(F)cc2)ccc1Cl [2-{[(2-chloro-4-fluorophenyl)methyl]thio}-5-{1-[4-chloro-3-(methyloxy)phenyl]-1-methylethyl}-1-(4-fluorophenyl)-1H-imidazole] |
| < 100 | 100 to 1000 | COc1ccc(C(C)(C)c2cnc(SCc3cc(F)ccc3Cl)n2-c2ccc(F)cc2)cc1Cl [2-{[(2-chloro-5-fluorophenyl)methyl]thio}-5-{1-[3-chloro-4-(methyloxy)phenyl]-1-methylethyl}-1-(4-fluorophenyl)-1H-imidazole] |
| 100 to 1000 | < 100 | CC(C)(c1cccc(S(C)(=O)=O)c1)c1cnc(SCc2c(F)cccc2Cl)n1-c1ccc(F)cc1 [2-{[(2-chloro-6-fluorophenyl)methyl]thio}-1-(4-fluorophenyl)-5-{1-methyl-1-[3-(methylsulfonyl)phenyl]ethyl}-1H-imidazole] |
| < 100 | 100 to 1000 | COc1ccc(C(C)(C)c2cnc(SCc3c(F)cccc3Cl)n2-c2ccc(F)cc2)cc1 [2-{[(2-chloro-6-fluorophenyl)methyl]thio}-1-(4-fluorophenyl)-5-{1-methyl-1-[4-(methyloxy)phenyl]ethyl}-1H-imidazole] |
| < 100 | 100 to 1000 | CC(C)(c1ccc(Cl)c(Cl)c1)c1cnc(SCc2c(F)cccc2Cl)n1-c1ccc(F)c(F)c1 [2-{[(2-chloro-6-fluorophenyl)methyl]thio}-5-[1-(3,4-dichlorophenyl)-1-methylethyl]-1-(3,4-difluorophenyl)-1H-imidazole] |
| < 100 | 100 to 1000 | CC(C)(c1ccc(Cl)c(Cl)c1)c1cnc(SCc2c(F)cccc2Cl)n1-c1ccc(F)cc1 [2-{[(2-chloro-6-fluorophenyl)methyl]thio}-5-[1-(3,4-dichlorophenyl)-1-methylethyl]-1-(4-fluorophenyl)-1H-imidazole] |
| < 100 | < 100 | COc1cc(-n2c(C(C)(C)c3ccc(Cl)c(Cl)c3)cnc2SCc2c(F)cccc2Cl)ccc1F [2-{[(2-chloro-6-fluorophenyl)methyl]thio}-5-[1-(3,4-dichlorophenyl)-1-methylethyl]-1-[4-fluoro-3-(methyloxy)phenyl]-1H-imidazole] |
| < 100 | < 100 | COc1c(Cl)cc(C(C)(C)c2cnc(SCc3c(F)cccc3Cl)n2-c2ccc(F)cc2)cc1Cl [2-{[(2-chloro-6-fluorophenyl)methyl]thio}-5-{1-[3,5-dichloro-4-(methyloxy)phenyl]-1-methylethyl}-1-(4-fluorophenyl)-1H-imidazole] |
| < 100 | < 100 | COc1ccc(C(C)(C)c2cnc(SCc3c(F)cccc3Cl)n2-c2ccc(F)cc2)cc1Cl [2-{[(2-chloro-6-fluorophenyl)methyl]thio}-5-{1-[3-chloro-4-(methyloxy)phenyl]-1-methylethyl}-1-(4-fluorophenyl)-1H-imidazole] |
| < 100 | < 100 | COc1cc(C(C)(C)c2cnc(SCc3c(F)cccc3Cl)n2-c2ccc(F)cc2)ccc1Cl [2-{[(2-chloro-6-fluorophenyl)methyl]thio}-5-{1-[4-chloro-3-(methyloxy)phenyl]-1-methylethyl}-1-(4-fluorophenyl)-1H-imidazole] |
| < 100 | < 100 | CC(C)(c1ccc(S(C)(=O)=O)cc1)c1cnc(SCc2c(F)cc(C(=O)O)cc2F)n1-c1ccc(F)cc1 [3,5-difluoro-4-({[1-(4-fluorophenyl)-5-{1-methyl-1-[4-(methylsulfonyl)phenyl]ethyl}-1H-imidazol-2-yl]thio}methyl)benzoic acid] |

The remaining lines, values behind:

| Compound | EC50 (human TGR5 (h-TGR5)) [nM] | EC50 (h-TGR5) [nM] |
| --- | --- | --- |
| CC(C)(c1ccc(S(N)(=O)=O)c(Cl)c1)c1cnc(SCc2ccc(Cl)c(-c3nnn[nH]3)c2)n1-c1ccc(F)cc1 [2-chloro-4-{1-[2-({[4-chloro-3-(1H-tetrazol-5-yl)phenyl]methyl}thio)-1-(4-fluorophenyl)-1H-imidazol-5-yl]-1-methylethyl}benzenesulfonamide] | 100 to 1000 | 100 to 1000 |
| CC(C)(c1ccc(C(N)=O)c(Cl)c1)c1cnc(SCc2ccc(F)cc2Cl)n1-c1ccc(F)cc1 [2-chloro-4-{1-[2-{[(2-chloro-4-fluorophenyl)methyl]thio}-1-(4-fluorophenyl)-1H-imidazol-5-yl]-1-methylethyl}benzamide] | 100 to 1000 | < 100 |
| CC(C)(c1ccc(C#N)c(Cl)c1)c1cnc(SCc2ccc(F)cc2Cl)n1-c1ccc(F)cc1 [2-chloro-4-{1-[2-{[(2-chloro-4-fluorophenyl)methyl]thio}-1-(4-fluorophenyl)-1H-imidazol-5-yl]-1-methylethyl}benzonitrile] | 100 to 1000 | 100 to 1000 |
| COc1ccc(C(C)(C)c2cnc(SCc3ccc(Cl)c(C(=O)O)c3)n2-c2ccc(F)cc2)cc1Cl [2-chloro-5-({[5-{1-[3-chloro-4-(methyloxy)phenyl]-1-methylethyl}-1-(4-fluorophenyl)-1H-imidazol-2-yl]thio}methyl)benzoic acid] | 100 to 1000 | 100 to 1000 |
| CC(C)NC(=O)NS(=O)(=O)c1cc(CSc2ncc(C(C)(C)c3ccc(Cl)c(Cl)c3)n2-c2ccc(F)cc2)ccc1Cl [2-chloro-5-[({5-[1-(3,4-dichlorophenyl)-1-methylethyl]-1-(4-fluorophenyl)-1H-imidazol-2-yl}thio)methyl]-N-{[(1-methylethyl)amino]carbonyl}benzenesulfonamide] | 100 to 1000 | 100 to 1000 |
| COc1cc(-n2c(C(C)(C)c3ccc(Cl)c(Cl)c3)cnc2SCc2ccc(F)cc2Cl)ccc1F [2-{[(2-chloro-4-fluorophenyl)methyl]thio}-5-[1-(3,4-dichlorophenyl)-1-methylethyl]-1-[4-fluoro-3-(methyloxy)phenyl]-1H-imidazole] | 100 to 1000 | 100 to 1000 |
| CC(C)(c1ccc(Cl)c(Cl)c1)c1cnc(SCc2c(F)cccc2Cl)n1-c1ccc(F)cc1F [2-{[(2-chloro-6-fluorophenyl)methyl]thio}-5-[1-(3,4-dichlorophenyl)-1-methylethyl]-1-(2,4-difluorophenyl)-1H-imidazole] | 100 to 1000 | 100 to 1000 |
| COc1cc(C(C)(C)c2c(C)nc(SCc3c(F)cccc3Cl)n2-c2ccc(F)cc2)ccc1Cl [2-{[(2-chloro-6-fluorophenyl)methyl]thio}-5-{1-[4-chloro-3-(methyloxy)phenyl]-1-methylethyl}-1-(4-fluorophenyl)-4-methyl-1H-imidazole] | 100 to 1000 | 100 to 1000 |
| COc1cc(-n2c(C(C)(C)c3ccc(S(N)(=O)=O)c(Cl)c3)cnc2SCc2c(F)cc(C(=O)NCCS(=O)(=O)O)cc2F)ccc1F [2-{[(4-{[(5-{1-[4-(aminosulfonyl)-3-chlorophenyl]-1-methylethyl}-1-[4-fluoro-3-(methyloxy)phenyl]-1H-imidazol-2-yl)thio]methyl}-3,5-difluorophenyl)carbonyl]amino}ethanesulfonic acid] | < 100 | < 100 |
| COc1cc(-n2c(C(C)(C)c3ccc(S(N)(=O)=O)c(Cl)c3)cnc2SCc2ccc(C(=O)NCCS(=O)(=O)O)cc2F)ccc1F [2-{[(4-{[(5-{1-[4-(aminosulfonyl)-3-chlorophenyl]-1-methylethyl}-1-[4-fluoro-3-(methyloxy)phenyl]-1H-imidazol-2-yl)thio]methyl}-3-fluorophenyl)carbonyl]amino}ethanesulfonic acid] | < 100 | < 100 |
| CC(C)(c1ccc2ccccc2c1)c1cnc(SCc2c(F)cc(C(=O)O)cc2F)n1-c1ccc(F)cc1 [3,5-difluoro-4-({[1-(4-fluorophenyl)-5-(1-methyl-1-naphthalen-2-ylethyl)-1H-imidazol-2-yl]thio}methyl)benzoic acid] | 100 to 1000 | 100 to 1000 |
| COc1cc(-n2c(C(C)(C)c3cccc(S(C)(=O)=O)c3)cnc2SCc2c(F)cc(C(=O)O)cc2F)ccc1F [3,5-difluoro-4-{[(1-[4-fluoro-3-(methyloxy)phenyl]-5-{1-methyl-1-[3-(methylsulfonyl)phenyl]ethyl}-1H-imidazol-2-yl)thio]methyl}benzoic acid] | 100 to 1000 | 100 to 1000 |

Reference: US8785488B2 (Exelixis Patent Company LLC, priority 2009, dated 2014)
